{"source": "the supplement of paper PMC10307832", "assay_in_all_cases": "relative viability (nuclei count vs DMSO), 5 days (fraction); higher = more cells survive", "key": {"MLN4924 + Foretinib": {"compound": "NS(=O)(=O)OC[C@@H]1C[C@@H](n2ccc3c(N[C@H]4CCc5ccccc54)ncnc32)C[C@@H]1O [MLN4924] + COc1cc2c(Oc3ccc(NC(=O)C4(C(=O)Nc5ccc(F)cc5)CC4)cc3F)ccnc2cc1OCCCN1CCOCC1 [Foretinib] (partner 0.25 µM)", "summary_of_the_method": "(§1)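 Nuclei were stained with Hoechst during a one-step fixation (final 0.05% Triton X-100, 1% formaldehyde, 1 ug/ml Hoechst) carried out 5 days after dosing, then counted on 4× images. The cells, lung cancer lines in 1536-well plates, had been dosed by pin tool the day after seeding with one drug alone or a fixed anchor-drug dose plus five library-drug doses (not always all listed) in √10 steps. Relative viability is the nuclei count in treated wells divided by that in vehicle wells, and each value is the median of duplicate plates.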"}, "Carboplatin + Vorinostat": {"compound": "C1CC(C1)(C(=O)O)C(=O)O.[NH2-].[NH2-].[Pt+2] [Carboplatin] + O=C(CCCCCCC(=O)Nc1ccccc1)NO [Vorinostat] (partner 1 µM)", "summary_of_the_method": "as §1"}, "MLN4924 + Pemetrexed": {"compound": "NS(=O)(=O)OC[C@@H]1C[C@@H](n2ccc3c(N[C@H]4CCc5ccccc54)ncnc32)C[C@@H]1O [MLN4924] + Nc1nc2[nH]cc(CCc3ccc(C(=O)N[C@@H](CCC(=O)O)C(=O)O)cc3)c2c(=O)[nH]1 [Pemetrexed] (partner 0.2 µM)", "summary_of_the_method": "as §1"}, "MLN4924 + Bortezomib": {"compound": "NS(=O)(=O)OC[C@@H]1C[C@@H](n2ccc3c(N[C@H]4CCc5ccccc54)ncnc32)C[C@@H]1O [MLN4924] + CC(C)C[C@H](NC(=O)[C@H](Cc1ccccc1)NC(=O)c1cnccn1)B(O)O [Bortezomib] (partner 0.002 µM)", "summary_of_the_method": "as §1"}}}
{"cell line": "UMC-11", "values": [{"measurement": "relative viability", "setting": "MLN4924 + Foretinib; first compound 0.04 µM", "value": 0.57}, {"measurement": "relative viability", "setting": "MLN4924 + Foretinib; first compound 0.1265 µM", "value": 0.307}, {"measurement": "relative viability", "setting": "MLN4924 + Foretinib; first compound 0.4 µM", "value": 0.298}, {"measurement": "relative viability", "setting": "MLN4924 + Foretinib; first compound 1.265 µM", "value": 0.191}, {"measurement": "relative viability", "setting": "MLN4924 + Foretinib; first compound 4 µM", "value": 0.173}, {"measurement": "relative viability", "setting": "Carboplatin + Vorinostat; first compound 0.08 µM", "value": 0.425}, {"measurement": "relative viability", "setting": "Carboplatin + Vorinostat; first compound 0.253 µM", "value": 0.364}, {"measurement": "relative viability", "setting": "Carboplatin + Vorinostat; first compound 0.8 µM", "value": 0.36}, {"measurement": "relative viability", "setting": "Carboplatin + Vorinostat; first compound 2.53 µM", "value": 0.37}, {"measurement": "relative viability", "setting": "Carboplatin + Vorinostat; first compound 8 µM", "value": 0.283}, {"measurement": "relative viability", "setting": "MLN4924 + Pemetrexed; first compound 0.04 µM", "value": 0.53}, {"measurement": "relative viability", "setting": "MLN4924 + Pemetrexed; first compound 0.1265 µM", "value": 0.327}, {"measurement": "relative viability", "setting": "MLN4924 + Pemetrexed; first compound 0.4 µM", "value": 0.289}, {"measurement": "relative viability", "setting": "MLN4924 + Pemetrexed; first compound 1.265 µM", "value": 0.175}, {"measurement": "relative viability", "setting": "MLN4924 + Pemetrexed; first compound 4 µM", "value": 0.159}, {"measurement": "relative viability", "setting": "MLN4924 + Bortezomib; first compound 0.04 µM", "value": 0.529}, {"measurement": "relative viability", "setting": "MLN4924 + Bortezomib; first compound 0.1265 µM", "value": 0.301}, {"measurement": "relative viability", "setting": "MLN4924 + Bortezomib; first compound 0.4 µM", "value": 0.269}, {"measurement": "relative viability", "setting": "MLN4924 + Bortezomib; first compound 1.265 µM", "value": 0.1}, {"measurement": "relative viability", "setting": "MLN4924 + Bortezomib; first compound 4 µM", "value": 0.0977}]}
